Test results: patent US6281356A, “Substituted pyrroles” (Hoffmann-La Roche Inc., priority 2000, dated 2001)
Where a name gives a salt, the structure may show the parent alone.

Tested on: epithelial breast carcinoma cell line (MDAMB-435)
Experiment: Antiproliferative activity (growth inhibition, MTT), epithelial breast carcinoma cell line MDAMB-435
Type: cell-based
Details: Homo sapiens, MDA-MB-435, 120 h, 5 days post drug addition, 0.1% DMSO, read-out: IC50 (growth inhibition of MDAMB-435 cells)
Protocol: The epithelial breast carcinoma cell line (MDAMB-435) was purchased from ATCC (American Type Cell Culture Collection) and was grown in culture medium as recommended by ATCC. For analysis of the effect of various compounds of formula I on the growth of these cells, the cells were plated at a concentration of 1500 cells/well in a 96 well tissue culture plate ("test plate"). The day after the cells were plated, the compounds to be analyzed were dissolved in 100% DMSO (dimethyl sulfoxide) to yield at 10 mM stock solution. Each compound was diluted in H2 O to 1 mM and was added to triplicate wells in the first row of a 96 well master plate containing medium to yield a final concentration of 40 μM. The compounds were then serially diluted in medium in the "master plate". The diluted compound(s) were then transferred to test plates containing cells. A row of vehicle "control cells" received DMSO. The final concentration of DMSO in each well was 0.1%. 5 days post drug addition, the plate was analyzed as described below.
MTT (3-(4-5 methyl thiazole-2-yl)-2,5-diphenyl tetrazolium bromide; thiazolyl blue) was added to each well to yield a final concentration of 1 mg/ml. The plate was then incubated at 37° C. for 21/2-3 hours. The MTT-containing medium was then removed and 50 μl of 100% ethanol was added to each well to dissolve the formazan. The absorbences were then read using an automated plate reader (Bio-tek microplate reader). IC50 s were calculated using the Reed and Munsch equation, see Am. J. Hygiene Vol. 27 pgs. 493-497,1938.

Structure (SMILES) | IC50 [nM]
Cn1cncc1-c1ccc2c(C3=C(c4cn(C)c5cc([N+](=O)[O-])ccc45)C(=O)NC3=O)cn(C)c2c1 [Example 1, 3-[1-Methyl-6-(3-methyl-3H-imidazol-4-yl)-1H-indol-3-yl]-4-(1-methyl-6-nitro-1H-indol-3-yl)-pyrrole-2,5-dione] | 5
Cn1cncc1-c1ccc2c(C3=C(c4cn(C)c5ccccc45)C(=O)NC3=O)cn(C)c2c1 [Example 2a, 3-(1-Methyl-1H-indol-3-yl)-4-[1-methyl-6-(3-methyl-3H-imidazol-4-yl)-1H-indol-3-yl]pyrrole-2,5-dione] | 50
COc1ccc2c(C3=C(c4cn(C)c5cc(-c6cncn6C)ccc45)C(=O)NC3=O)cn(C)c2c1 [Example 2b, 3-(6-Methoxy-1-methyl-1H-indol-3-yl)-4-[1-methyl-6-(3-methyl-3H-imidazol-4-yl)-1H-indol-3-yl]pyrrole-2,5-dione] | 60
Cn1ccnc1-c1ccc2c(C3=C(c4cn(C)c5cc([N+](=O)[O-])ccc45)C(=O)NC3=O)cn(C)c2c1 [Example 2c, 3-[1-Methyl-6-(1-methyl-1H-imidazol-2-yl)-1H-indol-3-yl]-4-(1-methyl-6-nitro-1H-indol-3-yl)pyrrole-2,5-dione] | 30
CCn1ccnc1-c1ccc2c(C3=C(c4cn(C)c5cc([N+](=O)[O-])ccc45)C(=O)NC3=O)cn(C)c2c1 [Example 2d] | 120
Cn1cc(C2=C(c3cn(C)c4cc(-c5ncc[nH]5)ccc34)C(=O)NC2=O)c2ccccc21 [Example 2e, 3-[6-(1H-Imidazol-2-yl)-1-methyl-1H-indol-3-yl]-4-(1-methyl-1H-indol-3-yl)pyrrole-2,5-dione] | 80
Cn1cc(C2=C(c3cn(C)c4cc([N+](=O)[O-])ccc34)C(=O)NC2=O)c2ccc(-c3cnc[nH]3)cc21 [Example 2f, 3-[6-(3H-Imidazol-4-yl)-1-methyl-1H-indol-3-yl]-4-(1-methyl-6-nitro-3-yl)pyrrole-2,5-dione hydrochloride] | 20
Cn1cc(C2=C(c3cn(C)c4cc(-c5ccco5)ccc34)C(=O)NC2=O)c2ccccc21 [Example 2g, 3-(6-Furan-2-yl-1-methyl-1H-indol-3-yl)-4-(1-methyl-1H-indol-3-yl)pyrrole-2,5-dione] | 20
Cn1cc(C2=C(c3cn(C)c4cc([N+](=O)[O-])ccc34)C(=O)NC2=O)c2ccc(-c3ccco3)cc21 [Example 2h, 3-(6-Furan-2-yl-1-methyl-1H-indol-3-yl)-4-(1-methyl-6-nitro-1H-indol-3-yl)pyrrole-2,5-dione] | 10
Cn1cc(C2=C(c3c[nH]c4ccccc34)C(=O)NC2=O)c2ccc(-c3ccco3)cc21 [Example 2i, 3-(6-Furan-2-yl-1-methyl-1H-indol-3-yl)-4-(1H-indol-3-yl)pyrrole-2,5-dione] | 30
Cn1nccc1-c1ccc2c(C3=C(c4cn(C)c5cc([N+](=O)[O-])ccc45)C(=O)NC3=O)cn(C)c2c1 [Example 2j, 3-[1-Methyl-6-(2-methyl-2H-pyrazol-3-yl)-1H-indol-3-yl]-4-(1-methyl-6-nitro-1H-indol-3-yl)pyrrole-2,5-dione] | 20

Other lines, results leading:

IC50 [nM] | Structure (SMILES)
250 | Cn1nccc1-c1ccc2c(C3=C(c4cn(C)c5ccccc45)C(=O)NC3=O)cn(C)c2c1 [Example 2k, 3-(1-Methyl-1H-indol-3-yl)-4-[1-methyl-6-(2-methyl-2H-pyrazol-3-yl)-1H-indol-3-yl]pyrrole-2,5-dione]
70 | Cn1nccc1-c1ccc2c(C3=C(c4cn(C)c5cc(Br)ccc45)C(=O)NC3=O)cn(C)c2c1 [Example 2l, 3-(6-Bromo-1-methyl-1H-indol-3-yl)-4-[1-methyl-6-(2-methyl-2H-pyrazol-3yl)-1H-indol-3-yl]pyrrole-2,5-dione]
10 | Cn1cc(C2=C(c3cn(C)c4cc([N+](=O)[O-])ccc34)C(=O)NC2=O)c2ccc(-c3ccns3)cc21 [Example 2m, 3-(6-Isothiazol-5-yl-1-methyl-1H-indol-3-yl)-4-(1-methyl-6-nitro-1H-indol-3-yl)pyrrole-2,5-dione]
40 | Cn1cc(C2=C(c3cn(C)c4cc(-c5ccns5)ccc34)C(=O)NC2=O)c2ccccc21 [Example 2n, 3-(6-Isothiazol-5-yl-1-methyl-1H-indol-3-yl)-4-(1-methyl-1H-indol-3-yl)-pyrrole-2,5-dione]
40 | Cn1cc(C2=C(c3cn(C)c4cc([N+](=O)[O-])ccc34)C(=O)NC2=O)c2ccc(-c3ncc[nH]3)cc21 [Example 2o, 3-[6-(1H-Imidazol-2-yl)-1-methyl-1H-indol-3-yl]-4-(1-methyl-6-nitro-1H-indol-3-yl)-pyrrole-2,5-dione]
40 | Cn1cc(C2=C(c3cn(C)c4cc(-c5cccs5)ccc34)C(=O)NC2=O)c2ccccc21 [Example 3, 3-(1-Methyl-1H-indol-3-yl)-4-(1-methyl-6-thiophen-2-yl-1H-indol-3-yl)pyrrole-2,5 dione]
24 | Cn1cc(C2=C(c3cn(C)c4cc(-c5nccs5)ccc34)C(=O)NC2=O)c2ccccc21 [Example 4a, 3-(1-Methyl-1H-indol-3-yl)-4-(1-methyl-6-thiazol-2-yl-1H-indol-3-yl)pyrrole-2,5-dione]
60 | Cn1ccnc1-c1ccc2c(C3=C(c4cn(C)c5ccccc45)C(=O)NC3=O)cn(C)c2c1 [Example 4b, 3-(1-Methyl-1H-indol-3-yl)-4-[1-methyl-6-(1-methyl-1H-imidazol-2-yl)-1H-indol-3-yl]-pyrrole-2,5-dione]
20 | Cn1cc(C2=C(c3cn(C)c4cc([N+](=O)[O-])ccc34)C(=O)NC2=O)c2ccc(-c3nccs3)cc21 [Example 4c, 3-(1-Methyl-6-nitro-1H-indol-3-yl)-4-(1-methyl-6-thiazol-2-yl-1H-indol-3-yl)pyrrole-2,5-dione]
20 | Cn1cc(C2=C(c3cn(C)c4cc([N+](=O)[O-])ccc34)C(=O)NC2=O)c2ccc(-c3cccs3)cc21 [Example 4d, 3-(1-Methyl-6-nitro-1H-indol-3-yl)-4-(1-methyl-6-thiophen-2-yl-1H-indol-3yl)-pyrrole-2,5-dione]
40 | Cn1cc(C2=C(c3cn(C)c4cc(-c5ccsc5)ccc34)C(=O)NC2=O)c2ccccc21 [Example 5, 3-(1-Methyl-1H-indol-3-yl)-4-(1-methyl-6-thiophen-3-yl-1H-indol-3-yl)pyrrole-2,5-dione]
40 | Cn1cc(C2=C(c3cn(C)c4cc([N+](=O)[O-])ccc34)C(=O)NC2=O)c2ccc(-c3ccsc3)cc21 [Example 6, 3-(1-methyl-6-nitro-1H-indol-3-yl)-4-(1-methyl-6-thiophen-3-yl-1H-indol-3-yl)pyrrole-2,5-dione]
60 | Cn1cc(C2=C(c3cn(C)c4cc(-n5ccnc5)ccc34)C(=O)NC2=O)c2ccccc21 [Example 7, 3-(6-imidazol-1-yl-1-methyl-1H-indol-3-yl)-4-(1-methyl-1H-indol-3-yl)-pyrrole-2,5-dione]
30 | Cn1cc(C2=C(c3cn(C)c4cc([N+](=O)[O-])ccc34)C(=O)NC2=O)c2ccc(-n3ccnc3)cc21 [Example 8a, 3-(6-Imidazol-1-yl-1-methyl-1H-indol-3-yl)-4-(1-methyl-6-nitro-1H-indol-3-yl)-pyrrole-2,5-dione]
250 | Cc1nccn1-c1ccc2c(C3=C(c4cn(C)c5cc([N+](=O)[O-])ccc45)C(=O)NC3=O)cn(C)c2c1 [Example 8b, 3-[1-Methyl-6-(2-methyl-imidazol-1-yl)-1H-indol-3-yl]-4-(1-methyl-6-nitro-1H-indol-3-yl)-pyrrole-2,5-dione]
